Source: US20230149510A1, “METHOD FOR ALLEVIATING ARTHRITIS USING EPIDERMAL GROWTH FACTOR” (Lovin BioMed Co., Ltd., priority 2021, published 2023)

Key:
[1] = tested on: articular cartilage of the right knee joint, MIA-induced OA; assay: Histopathologic analysis of right knee joint tissue (modified Mankin scoring), MIA-induced OA; assay type: in vivo, Sprague Dawley rats; details: rats; for morphological observation of articular cartilage of the right knee joint: 30 μL intraarticular on day 3 and day 14, day 28, versus pathological control, data not shown
Method: The Sprague Dawley rats were divided into five groups, including one normal control group, one pathological control group, one comparative group, and two experimental groups (i.e., experimental groups 1 to 2) (n=5 rats in each group).
The right knee joint of the respective rat in the pathological control group, the comparative group, and the experimental groups 1 and 2 was intraarticularly injected with 30 μL of a monosodium iodoacetate (MIA) solution (50 g/L, in 0.9% normal saline). In addition, the right knee joint of the respective rat in the normal control group was intraarticularly injected with 30 μL of 0.9% normal saline. […]
The tissue section was subjected to hematoxylin-eosin staining, and Safranin 0 and fast green staining using a staining protocol well-known to those skilled in the art, and was then observed under an optical microscope (Olympus, CKX41) at a magnification of 200×. Two areas of the respective tissue section were randomly selected and photographed, and pathological changes (such as cartilage damage, chondrocyte loss, and proteoglycan loss) in the respective tissue section was assessed according to the modified Mankin scoring system described in Pauli C. et al. (2012), Osteoarthritis Cartilage, 20:476-485. The degrees of cartilage damage, chondrocyte loss, and proteoglycan loss were scored on a scale from 1 to 5. […]
The data thus obtained were analyzed according to the method described in section 1 of the “General Procedures”.

[2] = tested on: Chick type II collagen (CII)-induced rheumatoid arthritis (RA); assay: Evaluation of RA severity (visual arthritis scoring), collagen-induced RA; assay type: in vivo, DBA/1 mice; details: mice, 100 μL intraperitoneal once daily for 20 days, scored every 3 days, 21st to 42nd day, FIG. 6
Method: Female DBA/1 mice (8 weeks old, with a body weight of approximately 20 g) used in the following experiments were purchased from National Laboratory Animal Center, Taipei City, Taiwan. All the experimental mice were housed in an animal room under the following laboratory conditions: an alternating 12-hour light and 12-hour dark cycle, a temperature maintained at 21° C. to 23° C., and a relative humidity maintained at 45% to 60%. Furthermore, water and feed were provided ad libitum for all the experimental mice. All experimental procedures involving the experimental mice were in compliance with the legal provision of the Institutional Animal Care and Use Committee of National Chung Hsing University, Taiwan, and were carried out according to the Guide for the Care and Use of Laboratory Animals of National Institutes of Health (NIH). […]
At the end of the 21st day after the initial immunization, the pathological symptoms (i.e., erythema and edema in the sole joint, ankle, and knee joint) in the respective mouse was assessed according to the visual arthritis scoring system described in Brand D. D. et al. (2007), Nat. […] Thereafter, the abovementioned visual arthritis scoring system was performed every 3 days until the 42nd day after the initial immunization (i.e., each mouse was scored 8 times). The degree of RA severity was scored on a scale from 1 to 8. […]

Substance	scale of OA (modified Mankin scoring, scale 1 to 5) ([1]; 30 μL intraarticular on day 3 and day 14, day 28, FIG. 2)	morphological observation of articular cartilage of the right knee joint [1]	severity of RA (visual arthritis score, scale 1 to 8) [2]
EGF: Epidermal growth factor (Cat. No. 02-108, Joycom Bio-chem) dissolved in PBS, 20 μg/g EGF; given to experimental group 1 (NSDSECPLSHDGYCLHDGVCMYIEALDKYACNCVVGYIGERCQYRDLKWWELR; UniProt P01133 971-1023, looked up)	significantly lower than that determined in the pathological control group	fewer cracks and a smoother surface, and less chondrocyte and proteoglycan loss were observed	increased slowly
hyaluronic acid [HA, reference compound]	–	fewer cracks and a smoother surface, and less chondrocyte and proteoglycan loss were observed	increased slowly
